Measured values as given in patent publication US11396517B1, “Exo-aza spiro inhibitors of menin-MLL interaction” (Janssen Pharmaceutica NV, priority 2017, dated 2022).

target: T1, menin (Homo sapiens, UniProt O00255, T541A); experiment: Menin/MLL homogenous time-resolved fluorescence (HTRF) assay; type: binding; conditions: location 1; read-out: (2) location 1 Menin HTRF assay (IC50 (nM))
T1 construct: Menin (a.a. 1-610-6×his tag)
T1 sequence (O00255 with tags, fused parts or gaps T541A): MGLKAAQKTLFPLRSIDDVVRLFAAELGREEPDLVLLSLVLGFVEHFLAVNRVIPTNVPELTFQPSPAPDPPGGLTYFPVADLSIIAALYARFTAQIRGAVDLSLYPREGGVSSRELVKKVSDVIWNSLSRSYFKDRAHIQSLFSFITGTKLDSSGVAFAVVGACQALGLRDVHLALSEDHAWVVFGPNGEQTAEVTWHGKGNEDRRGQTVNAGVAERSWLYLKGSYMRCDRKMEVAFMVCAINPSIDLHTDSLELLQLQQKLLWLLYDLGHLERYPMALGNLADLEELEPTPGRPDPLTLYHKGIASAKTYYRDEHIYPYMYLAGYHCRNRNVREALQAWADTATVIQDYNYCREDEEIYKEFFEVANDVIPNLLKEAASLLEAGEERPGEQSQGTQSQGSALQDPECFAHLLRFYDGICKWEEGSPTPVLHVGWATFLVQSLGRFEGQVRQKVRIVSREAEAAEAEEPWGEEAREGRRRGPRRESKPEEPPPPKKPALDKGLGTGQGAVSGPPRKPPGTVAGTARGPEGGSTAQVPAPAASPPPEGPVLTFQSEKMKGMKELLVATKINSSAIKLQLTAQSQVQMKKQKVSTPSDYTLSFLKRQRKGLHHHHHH
Method: 2) Menin/MLL Homogenous Time-Resolved Fluorescence (HTRF) Assay
To an untreated, white 384-well microtiter plate was added 40 nL 200× test compound in DMSO and 4 μL 2× terbium chelate-labeled menin (vide infra for preparation) in assay buffer (40 mM Tris HCl, pH 7.5, 50 mM NaCl, 1 mM DTT and 0.05% Pluronic F-127). After incubation of test compound and terbium chelate-labeled menin for 5 min at ambient temperature, 4 μL 2× FITC-MBM1 peptide (FITC-β-alanine-[…]-NH2 (SEQ ID NO: 23)) in assay buffer was added, the microtiter plate centrifuged at 1000 rpm for 1 min and the assay mixtures incubated for 15 min at ambient temperature. The relative amount of menin.FITC-MBM1 complex present in an assay mixture is determined by measuring the homogenous time-resolved fluorescence (HTRF) of the terbium/FITC donor/acceptor fluorphore pair using a BMG Pherastar plate reader (ex. 337 nm/terbium em. 490 nm/FITC em. 520 nm) at ambient temperature. The degree of fluorescence resonance energy transfer (the HTRF value) is expressed as the ratio of the fluorescence emission intensities of the FITC and terbium fluorophores (Fern 520 nm/Fem 490 nm). The final concentrations of reagents in the binding assay are […] terbium chelate-labeled menin (location 2), 75 nM FITC-MBM1 peptide and 0.5% DMSO in assay buffer. Dose-response titrations of test compounds are conducted using an 11 point, three-fold serial dilution scheme, starting typically at 25 μM (location 1) or starting typically at 10 μM (location 2).
Compound potencies were determined by first calculating % inhibition at each compound concentration according to equation 1: % inhibition=((HC−LC)−(HTRF^compound−LC))/(HC−LC))*100 (Eqn 1)
Where LC and HC are the HTRF values of the assay in the presence or absence of a saturating concentration of a compound that competes with FITC-MBM1 for binding to menin, and HTRF^compound is the measured HTRF value in the presence of the test compound. FTC and LC HTRF values represent an average of at least 16 replicates per plate.
Where Bottom and Top are the lower and upper asymptotes of the dose-response curve, respectively, IC50 is the concentration of compound that yields 50% inhibition of signal and h is the Hill coefficient.
Preparation of Terbium cryptate labeling of Menin: Menin (a.a. 1-610-6×his tag (“6×his” disclosed as SEQ ID NO: 3)) was labeled with terbium cryptate as follows. 2 mg of Menin was buffer exchanged into 1× phosphate buffered saline. 16 uM Menin was incubated with 4-fold molar excess NHS-terbium cryptate (Cisbio Bioassays, Bedford, Mass.) for 2 hours at room temperature. The labeled protein was purified away from free label by running the reaction over a Superdex 200 Increase 10/300 GL column at 0.75 ml/min. Peak fractions were collected, aliquoted and frozen at −80° C.

IC50 | Structure (SMILES)
472 nM | FC(F)(F)Cc1cc2c(N3CCC4(CCC(NCc5ccccc5)C4)C3)ncnc2s1 (single isomer, unassigned) [Compound 6]

same assay, conditions: location 2; read-out: (2) location 2 Menin HTRF assay (IC50 (nM))

IC50 | Structure (SMILES)
113 nM | CNc1nc(N2CCC3(CC(Nc4ccc5[nH]c(=O)[nH]c5c4)C3)C2)c2cc(CC(F)(F)F)sc2n1 (single isomer, unassigned) [Compound 395]
521 nM | FC(F)(F)Cc1cc2c(N3CC4(CC[C@@H](Nc5ccc(-c6cn[nH]c6)cc5)C4)C3)ncnc2s1 (single isomer, unassigned) [Compound 303]
123 nM | FC(F)(F)Cc1cc2c(N3CCC4(CCC(Nc5ccccc5)C4)C3)ncnc2s1 (single isomer, unassigned) [Compound 32]
316 nM | CS(=O)(=O)Nc1ccc(C(=O)NC2CC3(CCN(c4ncnc5sc(CC(F)(F)F)cc45)C3)C2)cc1 (single isomer, unassigned) [Compound 29]
199 nM | FC(F)(F)Cc1cc2c(N3CCC4(CC(Nc5ccccc5Cl)C4)C3)ncnc2s1 (mixture of isomers) [Compound 159]
419 nM | O=S(=O)(NC1CC2(CCN(c3ncnc4sc(CC(F)(F)F)cc34)C2)C1)c1ccccc1 (stereo not shown) [Compound 24]
98.1 nM | Cc1ccc(NC2CC3(CCN(c4ncnc5sc(CC(F)(F)F)cc45)C3)C2)cc1 (mixture of isomers) [Compound 167]
297 nM | CN1CCN(C(=O)c2ccc(NC3CC4(CCN(c5ncnc6sc(CC(F)(F)F)cc56)C4)C3)cc2)CC1 (mixture of isomers) [Compound 336]
1690 nM | Cn1c(=O)[nH]c2ccc(NC3CC4(CCN(c5ncnc6sc(CC(F)(F)F)cc56)C4)C3)cc21 (mixture of isomers) [Compound 325]
1440 nM | O=S(=O)(NC1CCC2(CCN(c3ncnc4sc(CC(F)(F)F)cc34)C2)C1)c1ccccc1 (stereo not shown) [Compound 39]
5940 nM | N#CCc1ccc(S(=O)(=O)NC2CCC3(CCN(c4ncnc5sc(CC(F)(F)F)cc45)C3)C2)cc1 (stereo not shown) [Compound 125]
2350 nM | CN(CC1CC2(CCN(c3ncnc4sc(CC(F)(F)F)cc34)C2)C1)c1cnn(C)c1 (mixture of isomers) [Compound 197]
150 nM | FC(F)(F)Cc1cc2c(N3CCC4(CC(Nc5cccc(Cl)c5)C4)C3)ncnc2s1 (mixture of isomers) [Compound 160]
55.2 nM | FC(F)(F)Cc1cc2c(N3CCC4(CC(Nc5ccc6cc[nH]c6c5)C4)C3)ncnc2s1 (single isomer, unassigned) [Compound 313]
339 nM | FC(F)(F)Cc1cc2c(N3CCC4(CC(Nc5cn[nH]c5)C4)C3)ncnc2s1 (mixture of isomers) [Compound 309]
206 nM | FC(F)(F)Cc1cc2c(N3CCC4(CC(Nc5ccc(-c6cn[nH]c6)cc5)C4)C3)ncnc2s1 (single isomer, unassigned) [Compound 328]
536 nM | CN(C1CC2(CCN(c3ncnc4sc(CC(F)(F)F)cc34)C2)C1)S(=O)(=O)c1cccc(C(F)(F)F)c1 (mixture of isomers) [Compound 426]
118 nM | O=S(=O)(c1ccc(NC2CC3(CCN(c4ncnc5sc(CC(F)(F)F)cc45)C3)C2)cc1)N1CCOCC1 (single isomer, unassigned) [Compound 220]
425 nM | CC(C)(C#N)c1ccc(NC2CC3(CCN(c4ncnc5sc(CC(F)(F)F)cc45)C3)C2)cc1 (stereo not shown) [Compound 169]
148 nM | O=c1ccc(NC2CC3(CCN(c4ncnc5sc(CC(F)(F)F)cc45)C3)C2)c[nH]1 (mixture of isomers) [Compound 305]
100 nM | O=C(c1ccc(NC2CC3(CCN(c4ncnc5sc(CC(F)(F)F)cc45)C3)C2)cc1)N1CC2(COC2)C1 (single isomer, unassigned) [Compound 414]

IC50 | Structure (SMILES)
158 nM | CC(C)(N[C@@H]1CCC2(C1)CN(c1ncnc3sc(CC(F)(F)F)cc13)C2)c1ccccc1 (single isomer, unassigned) [Compound 280]
2300 nM | CN1CCN(C(=O)c2ccc(NC3CC4(CCN(c5ncnc6sc(CC(F)(F)F)cc56)C4)C3)cc2)CC1 (single isomer, unassigned) [Compound 337]
160 nM | COc1nc(N2CC3(CC[C@@H](NCc4cccc(-c5cc[nH]n5)c4)C3)C2)c2cc(CC(F)(F)F)sc2n1 (stereo in doubt) [Compound 115]
175 nM | N#CCc1cccc(NC2CC3(CCN(c4ncnc5sc(CC(F)(F)F)cc45)C3)C2)c1 (stereo not shown) [Compound 201]
330 nM | CC(=O)Nc1ccc(NC2CC3(CCN(c4ncnc5sc(CC(F)(F)F)cc45)C3)C2)cc1 (single isomer, unassigned) [Compound 332]
70.4 nM | N#CCc1ccc(NC2CC3(CCN(c4ncnc5sc(CC(F)(F)F)cc45)C3)C2)cc1Cl (single isomer, unassigned) [Compound 210]
62 nM | Cc1noc2cc(NC3CC4(CCN(c5ncnc6sc(CC(F)(F)F)cc56)C4)C3)ccc12 (mixture of isomers) [Compound 215]
348 nM | CNc1nc(N2CCC3(CC(Nc4ccc5oc(=O)n(CCN6CCN(S(C)(=O)=O)CC6)c5c4)C3)C2)c2cc(CC(F)(F)F)sc2n1 (mixture of isomers) [Compound 248]
143 nM | FC(F)(F)Cc1cc2c(N3CCC4(CCC(NCc5ccccc5)C4)C3)ncnc2s1 (single isomer, unassigned) [Compound 6]
256 nM | Cc1nc(N2CC3(CC[C@H](NCc4cccc(-c5cc[nH]n5)c4)C3)C2)c2cc(CC(F)(F)F)sc2n1 (single isomer, unassigned) [Compound 118]
3430 nM | COC1CCN(C(=O)c2ccc(NC3CC4(CCN(c5ncnc6sc(CC(F)(F)F)cc56)C4)C3)cc2)CC1 (single isomer, unassigned) [Compound 184]
39.6 nM | CNC(=O)c1ccc(NC2CC3(CCN(c4ncnc5sc(CC(F)(F)F)cc45)C3)C2)c(Cl)c1 (single isomer, unassigned) [Compound 68]
3040 nM | O=C1CN(C(=O)c2ccc(NC3CC4(CCN(c5ncnc6sc(CC(F)(F)F)cc56)C4)C3)cc2)CCN1 (single isomer, unassigned) [Compound 105]
2530 nM | N#CCc1cccc(S(=O)(=O)NC2CCC3(CCN(c4ncnc5sc(CC(F)(F)F)cc45)C3)C2)c1 (stereo not shown) [Compound 124]
128 nM | O=c1[nH]c2ccc(N[C@H]3CCC4(C3)CN(c3ncnc5sc(CC(F)(F)F)cc35)C4)cc2[nH]1 (single isomer, unassigned) [Compound 300]
210 nM | Cn1cnc2ccc(NC3CC4(CCN(c5ncnc6sc(CC(F)(F)F)cc56)C4)C3)cc21 (mixture of isomers) [Compound 207]
> 10000 nM | CS(=O)(=O)Nc1ccc(C(=O)NC2CC3(CCN(c4ncnc5sc(CC(F)(F)F)cc45)C3)C2)cc1 (single isomer, unassigned) [Compound 28]
730 nM | N#CCc1ccc(C(=O)NC2CC3(CCN(c4ncnc5sc(CC(F)(F)F)cc45)C3)C2)cc1 (single isomer, unassigned) [Compound 12]
221 nM | O=S(=O)(NC1CC2(CCN(c3ncnc4sc(CC(F)(F)F)cc34)C2)C1)c1ccc(C(F)(F)F)cc1 (mixture of isomers) [Compound 417]
> 10000 nM | Cn1cc(NC2CC3(CCN(c4ncnc5sc(CC(F)(F)F)cc45)C3)C2)cn1 (mixture of isomers) [Compound 310]

Structure (SMILES) | IC50
CN(C1CC2(CCN(c3ncnc4sc(CC(F)(F)F)cc34)C2)C1)S(=O)(=O)c1ccccc1 (single isomer, unassigned) [Compound 26] | 311 nM
